Assay results published in PubChem BioAssay AID1996.
Converted amounts (≈) assume the structure as drawn.

conditions: buffer; pH 7.4; 200.0 µM

Row | Structure (SMILES) | solubility kinetic [µg/mL]
1 | Cc1ccc2nc(Nc3ncc4c(n3)CC(C)(C)CC4=O)nc(C)c2c1 | 10.5 (≈ 30.2 µM)
2 | CNc1ccc(/C=C(\C#N)C(=O)Nc2ccccn2)cc1[N+](=O)[O-] | 2.8 (≈ 8.66 µM)
3 | CCN(CC)c1nc(-c2ccccc2)nc2c1sc(=S)n2CC | < 0.2
4 | Cc1ccc2[nH]c(C)c(CCNC(=O)c3c(N)no[n+]3[O-])c2c1 | 5 (≈ 15.9 µM)
5 | CCOc1ccc(N(C)Cc2cc(=O)oc3ccc(OC)cc23)cc1 | 8.1 (≈ 23.9 µM)
6 | O=C1NC(=Nc2cccc(O)c2)S/C1=C\c1cccnc1 | 1.2 (≈ 4.04 µM)
7 | Cc1ccn2cc(-c3cccc([N+](=O)[O-])c3)nc2c1 | 5.7 (≈ 22.5 µM)
8 | CC(=O)Nc1ccc(S(=O)(=O)N2CCNC(=O)C2)cc1 | > 44.6
9 | O=C(CSc1ccccn1)NC1CCCC1 | > 35.4
10 | O=C(CN1CCN(Cc2ccccc2)CC1)NCc1ccc(Cl)cc1 | > 53.7
11 | Cc1c(C(=O)O)c(C(=O)O)c2n1CCS2 | > 34.1
12 | CCN(CC)CC(=O)Nn1c(C)nc2c(ncn2-c2ccccc2)c1=O | > 53.2
13 | Fc1ccc(NCc2nnc3n2CCCCC3)cc1 | > 39
14 | CC1=C(C(=O)OC(C)C)C(c2cccs2)NC(=O)N1 (stereo unspecified) | 37.2 (≈ 133 µM)
15 | CC(C)(C)c1ccc(-c2noc(CCC(=O)Nc3cccnc3)n2)cc1 | 3.1 (≈ 8.85 µM)
16 | O=C(Cn1cc(C(F)(F)F)cc(Cl)c1=O)NCc1ccccc1 | 7.8 (≈ 22.6 µM)
17 | NS(=O)(=O)c1ccc(NC(=O)CCC(=O)N2CCOCC2)cc1 | > 51.2
18 | Cc1ccnc(SCC(=O)Nc2cc(C)on2)n1 | > 39.6
19 | Cc1nc2ccccc2nc1OCc1cccc([N+](=O)[O-])c1 | 2 (≈ 6.77 µM)

Row | Structure (SMILES) | solubility kinetic [µg/mL]
20 | Clc1cccc(Nc2nc(-c3ccncc3)nc3ccccc23)c1 | < 0.2
21 | Cn1c(OCc2cccnc2)nc2c1c(=O)n(Cc1ccc(F)cc1)c(=O)n2C | 7.7 (≈ 19.5 µM)
22 | CCOC(=O)c1nc2ccccc2c(=O)[nH]1 | > 32.7
23 | Cc1ccc(NC(=O)C2CC2c2ccccc2)cc1 (stereo unspecified) | 2.4 (≈ 9.55 µM)
24 | CCC(C)Nc1nc(-c2ccccn2)nc2ccccc12 (stereo unspecified) | > 41.8
25 | CC1(C)CCc2cc(CN3CCN(c4ccccn4)CC3)ccc2O1 | 47.5 (≈ 141 µM)
26 | Oc1ccc(CCC2CCCCN2Cc2nc(C3CC3)no2)cc1 (stereo unspecified) | > 49.1
27 | CN1CCN(/C=C(\C#N)S(=O)(=O)c2ccc(Cl)cc2)CC1 | 44.1 (≈ 135 µM)
28 | CC12CC3(C)CC(C)(C1)CC(C(N)=O)(C2)C3 | 31 (≈ 140 µM)
29 | Cc1ccc(S(=O)(=O)N2CCC(C)CC2)cc1 | 28.6 (≈ 113 µM)
30 | COc1ccc(CNC(=O)C2CCN(C(=O)c3ccccc3)CC2)cc1 | > 52.9
31 | Cc1cc(Cl)ccc1NS(=O)(=O)c1c(C)[nH]c(=O)[nH]c1=O | > 49.5
32 | N#Cc1ccc(C(CC(=O)O)N2Cc3ccccc3C2=O)cc1 (stereo unspecified) | 44 (≈ 144 µM)
33 | COc1cc(C(=O)NCCCCc2ccccc2)cc(OC)c1OC | 4.5 (≈ 13.1 µM)
34 | CC1CCCC(C)N1C(=O)COC(=O)c1cccs1 (stereo unspecified) | > 42.2
35 | CN(c1ccccc1)c1ncccn1 | 14.2 (≈ 76.7 µM)
36 | O=C(/C=C/c1ccccc1Cl)NC1CCCCC1 | < 0.6
37 | CCOC(=O)c1sc(=S)n(-c2ccccc2Cl)c1C | 2.7 (≈ 8.6 µM)
38 | Cc1cccc(C(=O)O/N=C(\N)c2ccc(Cl)cc2)c1 | < 0.3

Row | Structure (SMILES) | solubility kinetic [µg/mL]
39 | CCCc1nc(NCCO)c(C#N)c2c1CCCC2 | > 38.9
40 | Cc1cc(NC(=O)NC(C(F)(F)F)C(F)(F)F)no1 | 22.7 (≈ 78 µM)
41 | O=S(=O)(CCN1CCOCC1)c1ccc(OC(F)(F)F)cc1 | > 50.9
42 | COC(=O)c1ccc2nc(-c3ccc(S(C)(=O)=O)cc3)cn2c1 | 2 (≈ 6.05 µM)
43 | NC1=NC(=O)/C(=C/c2ccc(Cl)cc2Cl)S1 | 1.3 (≈ 4.76 µM)
44 | CCC(=O)N=c1ccn(C2=Nc3ccccc3NC2=C(C#N)C#N)cc1 | 30.9 (≈ 90.3 µM)
45 | Cc1ccc(S(=O)(=O)NCC(=O)OCC(=O)NCc2ccco2)cc1 | > 55
46 | CCC(C)c1ccc(S(=O)(=O)Nc2cccnc2)cc1.Cl (stereo unspecified) | 35.9
47 | COc1cccc(NC(=O)CN(C)CC(=O)NCC(=O)Nc2ccc(F)cc2)c1 | > 60.4
48 | CSC1=NCCN1C(=O)c1c(-c2c(F)cccc2Cl)noc1C | > 53.1
49 | COc1ccc(N=C2CCS(=O)(=O)c3sccc32)cc1 | > 46.1
50 | CCc1cc2c(SCc3ccc(C(=O)OC)o3)ncnc2s1 | 1.8 (≈ 5.38 µM)
51 | Cc1nn(-c2ccccc2)c2[nH]c(=O)cc(C(F)F)c12 | > 41.3
52 | OC1=C(O)c2nc3cc(F)ccc3nc21 | > 30.6
53 | CC(=O)Nc1ccc(C(=O)OCc2ccc(F)cc2Cl)cc1 | 1.7 (≈ 5.28 µM)
54 | COc1cccc(-c2nc(-c3ccccc3)c(-c3ccccc3)[nH]2)c1OCC(=O)O | > 60.1
55 | COc1ccc(CC(=O)NCc2ccc(F)cc2)cc1S(=O)(=O)N1CCOCC1 | > 63.4
56 | CCc1ccc2[nH]c(=O)c(Cc3ccccc3)c(O)c2c1 | > 41.9

More lines, now with the values ahead:

Row | solubility kinetic [µg/mL] | Structure (SMILES)
57 | > 33.2 | C=CCc1c(N(CC)CC)nc(C)[nH]c1=O
58 | 23.9 (≈ 73.1 µM) | Fc1ccc(CCNC(=S)Nc2ccc(F)c(Cl)c2)cc1
59 | 7.8 (≈ 25.6 µM) | CCOc1ccc(NC(=O)CNC(=O)c2cccs2)cc1
60 | > 64.6 | COc1cc(C(C)=O)ccc1OCC(=O)NCC(c1ccc(F)cc1)N1CCOCC1 (stereo unspecified)
61 | 30.7 (≈ 111 µM) | c1ccc2c(c1)CCc1ccccc1C2=C1CCNCC1
62 | > 29 | CC(=O)Nc1ccc(CC(=O)O)cc1
63 | 36.8 (≈ 122 µM) | COc1cccc(C(=O)Nc2ccc3c(c2)OCO3)c1OC
64 | > 49.5 | OC(c1nc2ccc(F)cc2[nH]1)C(O)c1nc2ccc(F)cc2[nH]1 (stereo unspecified)
65 | 43.5 (≈ 142 µM) | O=C(CSc1ccccn1)Nc1ccc(F)c([N+](=O)[O-])c1
66 | < 0.2 | Cc1cccn2c(=O)c(C=O)c(Nc3ccccc3)nc12
67 | 21.6 (≈ 80.5 µM) | Cc1cc2ncn(C(=O)c3ccc(F)cc3)c2cc1C
68 | > 50.3 | O=C(c1ccccn1)N1CCN(c2cccc(C(F)(F)F)c2)CC1
69 | > 43.2 | Cn1nccc1C(=O)N1CCN(c2ccccc2F)CC1
70 | 1.3 (≈ 4.24 µM) | COc1ccccc1NC(=S)NCc1ccccc1Cl
71 | > 46.9 | CCC(=O)c1ccc(OCC(=O)NCCc2ccccn2)cc1
72 | 11 (≈ 29.7 µM) | COc1ccc(C(=O)NCC(C)(C)CNC(=O)c2ccc(OC)cc2)cc1
73 | > 43.2 | O=C(CSc1nc2ncccc2[nH]1)NCc1ccco1
74 | > 31.4 | Cc1ccc(-c2cn3cccnc3n2)cc1
75 | > 48.1 | O=C1CCc2ccc(NS(=O)(=O)c3ccc(F)cc3)cc2N1
76 | 34.6 (≈ 84.3 µM) | Cc1ccccc1NC(=O)c1cccc(S(=O)(=O)Nc2cccc(C(=O)O)c2)c1
77 | 32.7 (≈ 132 µM) | Cc1cccc(C)c1NC(=O)COC(=O)C1CC1
78 | > 39.7 | O=c1c([N+](=O)[O-])cccn1Cc1ccccc1Cl
79 | 18 (≈ 51.2 µM) | CC1C=CCC2C(=O)N(c3ccc(OC(=O)c4ccco4)cc3)C(=O)C12 (stereo unspecified)
80 | > 47.9 | OC(CNCc1ccc2c(c1)OCO2)COc1ccc(F)cc1 (stereo unspecified)
81 | 16.1 (≈ 37.6 µM) | O=C(COC(=O)C12CC3CC(CC(Br)(C3)C1)C2)Nc1c(F)cccc1F
82 | 24.7 (≈ 138 µM) | CCNc1nc2cccnc2s1
83 | 4.6 (≈ 16.4 µM) | Cc1cccc(OCCN2C(=O)c3ccccc3C2=O)c1
84 | 5.9 (≈ 21.7 µM) | Nc1ncc2c(n1)CCN(c1ccc([N+](=O)[O-])cc1)C2
85 | 13.5 (≈ 52.6 µM) | O=C1Nc2ccccc2C1=Nc1ccc(Cl)cc1
86 | 0.4 (≈ 1.13 µM) | CCCC(=O)NC(c1ccc(Cl)cc1)c1ccc2cccnc2c1O (stereo unspecified)
